Experimental data: the RepoRT retention time repository (doi:10.1016/j.chroma.2014.05.003)

Assay: RP, Agilent ZORBAX Eclipse Plus C18, 50 × 4.6 mm, 1.8 µm, 0.5 mL/min, estimated dead time 1.1 min; A: water + 0.1% formic acid; B: acetonitrile + 0.1% formic acid; gradient (min/%B) 0/10 3/10 25/100 28/100
Conditions: stereoisomer not certain
With `CCOP(=S)(OCC)SCn1nnc2ccccc2c1=O` the LC retention time was 17.4 min.
`COP(=S)(OC)SCn1nnc2ccccc2c1=O` showed an LC retention time of 15.4 min.
Molecule `CCCCCCCCCCCCCC[N+](C)(C)Cc1ccccc1` has an LC retention time of 18.4 min.
`CNC(=O)N(C)c1nnc(C(C)(C)C)s1` showed an LC retention time of 9.87 min.
`CCOC(=O)NCCOc1ccc(Oc2ccccc2)cc1` gave an LC retention time of 17 min.
In the case of `CS(=O)(=O)Nc1nc2cc(-c3ccc([N+](=O)[O-])cc3)c([N+](=O)[O-])cc2[nH]c1=O`, the LC retention time is reported as 11.5 min.
In the case of `Cc1ncc([N+](=O)[O-])n1CCO`, the LC retention time is reported as 2.77 min.
Work on `CCOC(=O)C1CC(=O)C(=C(O)C2CC2)C(=O)C1` (centres undefined) yielded an LC retention time of 14.2 min.
`CNC(C)Cc1ccccc1` (centres undefined) showed an LC retention time of 4.88 min.
`COC(=O)C1C(OC(=O)c2ccccc2)CC2CCC1N2C` (centres undefined) showed an LC retention time of 7.3 min.
Molecule `c1ccc2[nH]c(-c3cscn3)nc2c1` has an LC retention time of 4.54 min.
In the case of `CCOc1cc(OP(=S)(OC)OC)nc(CC)n1`, the LC retention time is reported as 18.8 min.
`CC(C)C1(C)N=C(c2nc3ccccc3cc2C(=O)O)NC1=O` (centres undefined) gave an LC retention time of 11 min.
Molecule `COc1ccc2c3c1OC1C(O)C=CC4C(C2)N(C)CCC341` (centres undefined) has an LC retention time of 3.16 min.
Work on `CN1CCC23c4c5ccc(O)c4OC2C(O)C=CC3C1C5` (centres undefined) yielded an LC retention time of 1.47 min.
Molecule `Cc1nc(N(C)C)nc(OC(=O)N(C)C)c1C` has an LC retention time of 6.86 min.
Work on `CNC(C)C(O)c1ccccc1` (centres undefined) yielded an LC retention time of 2.78 min.
Work on `NC(=O)N1c2ccccc2C=Cc2ccccc21` yielded an LC retention time of 11.2 min.
`CNC(=O)Oc1cc(C)cc(C(C)C)c1` gave an LC retention time of 15 min.
With `Cc1cccc(Nc2ccccc2C(=O)O)c1C` the LC retention time was 17.7 min.
`CC(C)N1C(=O)c2ccccc2NS1(=O)=O` gave an LC retention time of 12.7 min.
In the case of `CNC(=O)ON=CC(C)(C)S(C)(=O)=O`, the LC retention time is reported as 4.81 min.
`COC=C(C(=O)OC)c1ccccc1Oc1cc(Oc2ccccc2C#N)ncn1` gave an LC retention time of 15.8 min.
Molecule `Cc1cc(C)c(C2=C(OC(=O)CC(C)(C)C)C3(CCCC3)OC2=O)c(C)c1` has an LC retention time of 23.1 min.
In the case of `CCC1CCCC(OC2CCC(N(C)C)C(C)O2)C(C)C(=O)C2=CC3C(C=CC4CC(OC5OC(C)C(OC)C(OC)C5OC)CC43)C2CC(=O)O1` (centres undefined), the LC retention time is reported as 14.9 min.
Work on `CC1=C(C(=O)Nc2ccccc2)SCCO1` yielded an LC retention time of 13.1 min.
`CNC(=O)N(C)c1nc2ccccc2s1` showed an LC retention time of 12.1 min.
Molecule `COC(=O)Nc1nc2ccc(Sc3ccccc3)cc2[nH]1` has an LC retention time of 12.6 min.
`Cc1c(C(C)C)c(=O)n(-c2ccccc2)n1C` gave an LC retention time of 11.9 min.
Work on `Cc1c(N)c(=O)n(-c2ccccc2)n1C` yielded an LC retention time of 2.39 min.
In the case of `CCCCCCCCCCCCCCCC[N+](C)(C)Cc1ccccc1`, the LC retention time is reported as 20.6 min.
With `C#CC1(O)CCC2C3CCc4cc(O)ccc4C3CCC21C` (centres undefined) the LC retention time was 14.3 min.
`COP(=S)(OC)Oc1ccc([N+](=O)[O-])cc1` gave an LC retention time of 16.3 min.
`COP(=O)(OC)OC(C)=CC(=O)N(C)C` showed an LC retention time of 6.41 min.
Work on `CNC(=O)ON=CC(C)(C)SC` yielded an LC retention time of 10.2 min.
In the case of `CCOP(=O)(NC(C)C)Oc1ccc(SC)c(C)c1` (centres undefined), the LC retention time is reported as 15.4 min.
With `CCCSc1ccc2nc(NC(=O)OC)[nH]c2c1` the LC retention time was 10.5 min.
Molecule `CC(=O)CC(c1ccccc1)c1c(O)c2ccccc2oc1=O` (centres undefined) has an LC retention time of 14.9 min.
For `COCCOc1ccccc1S(=O)(=O)NC(=O)Nc1nc(OC)nc(OC)n1`, the LC retention time was 11.9 min.
Work on `c1coc(-c2nc3ccccc3[nH]2)c1` yielded an LC retention time of 5.19 min.
In the case of `CC(C)NCC(O)COc1cccc2[nH]ccc12` (centres undefined), the LC retention time is reported as 5.55 min.
Work on `COC(=O)Nc1nc2ccccc2[nH]1` yielded an LC retention time of 3.27 min.
With `COP(=S)(OC)Oc1ccc([N+](=O)[O-])c(C)c1` the LC retention time was 17.2 min.
Work on `CC(C)c1ccc(NC(=O)N(C)C)cc1` yielded an LC retention time of 12.9 min.
Molecule `O=c1[nH]c2c(c(=O)n1C1CCCCC1)CCC2` has an LC retention time of 11.3 min.
With `CNC(=O)CSP(=O)(OC)OC` the LC retention time was 2.22 min.
`CCNc1nc(NC(C)(C)C)nc(SC)n1` gave an LC retention time of 18.3 min.
For `CN(C)C1CSSSC1`, the LC retention time was 2.02 min.
In the case of `CCOP(=O)(OCC)OCC`, the LC retention time is reported as 9.03 min.
`CN1C2CCC1CC(OC(=O)C(CO)c1ccccc1)C2` (centres undefined) showed an LC retention time of 6.29 min.
With `CCn1cc(C(=O)O)c(=O)c2cc3c(cc21)OCO3` the LC retention time was 9.71 min.
Molecule `COc1cc(NS(=O)(=O)c2ccc(N)cc2)nc(OC)n1` has an LC retention time of 10.4 min.
In the case of `CC12CCC(=O)C=C1CCC1C2CCC2(C)C(O)CCC12` (centres undefined), the LC retention time is reported as 13.7 min.
For `CCC(=O)C(CC(C)N(C)C)(c1ccccc1)c1ccccc1` (centres undefined), the LC retention time was 11.4 min.
`CNC(=O)ON=C(C)C(C)SC` (centres undefined) gave an LC retention time of 9.65 min.
Work on `CCn1cc(C(=O)O)c(=O)c2ccc(C)nc21` yielded an LC retention time of 11.5 min.
With `Cn1c(=O)c2[nH]cnc2n(C)c1=O` the LC retention time was 2.8 min.
With `CON=C(C(=O)NC1C(=O)N2C(C(=O)O)=C(COC(C)=O)CSC12)c1csc(N)n1` (centres undefined) the LC retention time was 6.29 min.
`COc1cc(Cc2cnc(N)nc2N)cc(OC)c1OC` showed an LC retention time of 5.6 min.
Molecule `Cc1ccc(NS(=O)(=O)N(C)C)cc1` has an LC retention time of 12.9 min.
`CC1=NNC(=O)N(N=Cc2cccnc2)C1` gave an LC retention time of 1.4 min.
For `CCC1OC(=O)C(C)C(OC2CC(C)(OC)C(O)C(C)O2)C(C)C(OC2OC(C)CC(N(C)C)C2O)C(C)(OC)CC(C)C(=O)C(C)C(O)C1(C)O` (centres undefined), the LC retention time was 11.1 min.
For `Cc1nnc(NS(=O)(=O)c2ccc(N)cc2)s1`, the LC retention time was 7.12 min.
With `CCOP(=S)(OCC)Oc1ccc([N+](=O)[O-])cc1` the LC retention time was 18.5 min.
`CC12CCC(O)CC1CCC1C2CC(O)C2(C)C(C3=CC(=O)OC3)CCC12O` (centres undefined) showed an LC retention time of 8.14 min.
Work on `COc1ccc(Oc2ccc(NC(=O)N(C)C)cc2)cc1` yielded an LC retention time of 13.3 min.
`CCOP(=S)(Oc1ccc([N+](=O)[O-])cc1)c1ccccc1` (centres undefined) showed an LC retention time of 20 min.
In the case of `CCN(CC)N=O`, the LC retention time is reported as 15.9 min.
`CCOC(=O)C(CCc1ccccc1)NC(C)C(=O)N1CCCC1C(=O)O` (centres undefined) showed an LC retention time of 9.21 min.
`CC(Cc1ccc(C(C)(C)C)cc1)CN1CC(C)OC(C)C1` (centres undefined) gave an LC retention time of 12.4 min.
In the case of `CNc1nc(NC(C)C)nc(SC)n1`, the LC retention time is reported as 8.8 min.
`CNC(=O)Oc1ccc(N(C)C)c(C)c1` showed an LC retention time of 1.85 min.
`CN1CCCC1c1cccnc1` (centres undefined) showed an LC retention time of 1.36 min.
`Nc1nc(N)nc(NC2CC2)n1` gave an LC retention time of 1.36 min.
`CCSC(=O)N1CCCCCC1` showed an LC retention time of 16 min.
`COC(=O)c1ccc(C)cc1C1=NC(C)(C(C)C)C(=O)N1` (centres undefined) showed an LC retention time of 9.12 min.
`COc1ccc2cc(C(C)C(=O)O)ccc2c1` (centres undefined) showed an LC retention time of 13.8 min.
Work on `COC(=O)C(C)N(C(=O)Cc1ccccc1)c1c(C)cccc1C` (centres undefined) yielded an LC retention time of 18.1 min.
In the case of `CCOc1ccc2c(c1)C(C)=CC(C)(C)N2`, the LC retention time is reported as 11.8 min.
Work on `CN(C)c1nc(=O)n(C2CCCCC2)c(=O)n1C` yielded an LC retention time of 10.1 min.
Work on `CCNc1nc(NC(C)(C)C)nc(OC)n1` yielded an LC retention time of 9.32 min.
Work on `CNC(=O)Oc1cc(C)c(SC)c(C)c1` yielded an LC retention time of 15 min.
For `Cc1ccc(C)c(OCCCC(C)(C)C(=O)O)c1`, the LC retention time was 18.1 min.
`CNC(=O)Oc1cccc2c1OC(C)(C)C2O` (centres undefined) showed an LC retention time of 7.87 min.
Work on `NC(N)=Nc1nc(CSCCC(N)=NS(N)(=O)=O)cs1` yielded an LC retention time of 1.81 min.
Work on `CCCCC(CC)COC(=O)c1ccccc1C(=O)OCC(CC)CCCC` (centres undefined) yielded an LC retention time of 27.5 min.
Molecule `COC(=O)C=C(C)OP(=O)(OC)OC` has an LC retention time of 9.1 min.
For `C=C(C)C1Cc2c(ccc3c2OC2COc4cc(OC)c(OC)cc4C2C3=O)O1` (centres undefined), the LC retention time was 17.2 min.
With `CCOP(=O)(SC(C)CC)N1CCSC1=O` (centres undefined) the LC retention time was 12.7 min.
Molecule `CC(C)Cc1ccc(C(C)C(=O)O)cc1` (centres undefined) has an LC retention time of 16.6 min.
For `CCCCCc1cc(O)c2c(c1)OC(C)(C)C1CCC(C(=O)O)=CC21` (centres undefined), the LC retention time was 19.1 min.
Work on `COc1cc(C2c3cc4c(cc3C(OC3OC5COC(C)OC5C(O)C3O)C3COC(=O)C23)OCO4)cc(OC)c1OP(=O)(O)O` (centres undefined) yielded an LC retention time of 16.1 min.
`CCOP(=S)(OCC)Oc1cc(C)nc(C(C)C)n1` showed an LC retention time of 18.8 min.
`CN1C(=O)CCC1c1cccnc1` (centres undefined) gave an LC retention time of 1.35 min.
`CC(C(=O)O)c1cccc(C(=O)c2ccccc2)c1` (centres undefined) showed an LC retention time of 13.7 min.
`CN(C)C(=O)Nc1cccc(OC(=O)NC(C)(C)C)c1` showed an LC retention time of 11.6 min.
With `Nc1ccc(S(=O)(=O)Nc2ccccn2)cc1` the LC retention time was 5.27 min.
With `CCCCC1C(=O)N(c2ccccc2)N(c2ccccc2)C1=O` the LC retention time was 17.2 min.
Molecule `CNC(=O)Oc1cccc(C)c1` has an LC retention time of 11 min.
Molecule `CCOc1ccc(NC(=O)OC(C)C)cc1OCC` has an LC retention time of 15.3 min.
With `CN(C)C(=O)Nc1ccccc1` the LC retention time was 7.72 min.
`CCCN(CCC)C(=O)SCc1ccccc1` gave an LC retention time of 20.4 min.
With `CCCC1CC(C(=O)NC(C(C)O)C2OC(SC)C(O)C(O)C2O)N(C)C1` (centres undefined) the LC retention time was 3.66 min.
Molecule `CNC(=O)Oc1ccccc1OC(C)C` has an LC retention time of 11.9 min.
Work on `CC(C)(C)NCC(O)c1ccc(O)c(CO)c1` (centres undefined) yielded an LC retention time of 1.63 min.
Molecule `CCSCc1ccccc1OC(=O)NC` has an LC retention time of 13.1 min.
`Cc1cc(C2CC2)nc(Nc2ccccc2)n1` showed an LC retention time of 14.3 min.
With `CN(C)CCOC(c1ccccc1)c1ccccc1` the LC retention time was 9.81 min.
With `CCC(C)C1OC2(C=CC1C)CC1CC(CC=C(C)C(OC3CC(OC)C(OC4CC(OC)C(NC(C)=O)C(C)O4)C(C)O3)C(C)C=CC=C3COC4C(O)C(C)=CC(C(=O)O1)C34O)O2` (centres undefined) the LC retention time was 21.2 min.
Work on `CCCN(CC)CC1COC2(CCC(C(C)(C)C)CC2)O1` (centres undefined) yielded an LC retention time of 12.5 min.
`CC(C)N1C(=O)N(c2ccccc2)CSC1=NC(C)(C)C` showed an LC retention time of 18.3 min.
Work on `CCNC(C)Cc1ccccc1` (centres undefined) yielded an LC retention time of 5.85 min.
`CC1(C)SC2C(NC(=O)C(N)c3ccccc3)C(=O)N2C1C(=O)O` (centres undefined) showed an LC retention time of 7.93 min.
For `CCCCc1c(C)nc(NCC)nc1OS(=O)(=O)N(C)C`, the LC retention time was 14.4 min.
`CC(C)(C)c1ccc(CCOc2ncnc3ccccc23)cc1` gave an LC retention time of 22 min.
Molecule `CN=C(NC#N)NCCSCc1nc[nH]c1C` has an LC retention time of 1.83 min.
Work on `CCOP(=S)(OCC)Oc1cnc2ccccc2n1` yielded an LC retention time of 18.2 min.
In the case of `COP(=S)(OC)Oc1ccc(S(=O)(=O)N(C)C)cc1`, the LC retention time is reported as 15.3 min.
In the case of `CCn1cc(C(=O)O)c(=O)c2cnc(N3CCNCC3)nc21`, the LC retention time is reported as 4.78 min.
